These results are taken from PubChem BioAssay (NCI).

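Dose response: 5 concentrations. Exposure: 48 h. Format: 96-well plates. Endpoint: linear interpolation; highest concentration if not reached. GI50 = concentration required for 50% inhibition of growth. At the TGI there is no net growth.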

The GI50 is the concentration at which growth is held to half of that of the control. In general, TGI refers to the concentration at which net growth stops.

The test system of this experiment is MCF7 breast. Kind of experiment: DTP human tumour cell line panel, 48 h.

In the case of `O=C(Nc1ccc(-n2cc(-c3ccncc3)c(-c3ccc(O)c(Cl)c3)n2)cc1)c1ccc(Cl)c(Cl)c1`, the GI50 was 2040 nM and the TGI was > 32500 nM.
